Where two headings read alike, the source gives them in different places.
How the values were obtained:
oat, wild [1] = assay: Test A postemergence; format: in vivo, Avena fatua; conditions: Avena fatua, post-emergence, 240 h, postemergence, 10 days, 0 to 100 scale (0 no effect, 100 complete control); for pest or weed control at 125 g/ha: 125 g ai/ha, read-out: Oat, Wild plant response rating; for pest or weed control at 500 g/ha: 500 g ai/ha, visual injury, read-out: Plant response rating, Oat, Wild
Outline: (§1)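 Visual injury ratings on a 0–100 scale (100 = complete control) versus untreated controls, taken 10 days after treatment in greenhouse. Preemergence: directed soil spray onto seeded loam/sand. Postemergence: foliar application at one- to two-leaf stage, plants 2–10 cm. Formulation: non-phytotoxic solvent plus surfactant.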

blackgrass = assay: Test A postemergence; format: in vivo, Alopecurus myosuroides; conditions: Alopecurus myosuroides, post-emergence, 240 h; for pest or weed control at 125 g/ha: 125 g ai/ha, read-out: Blackgrass plant response rating; for pest or weed control at 500 g/ha: 500 g ai/ha, read-out: Plant response rating, Blackgrass
Outline: as §1

wheat [2] = assay: Test A postemergence; format: in vivo, Triticum aestivum; conditions: Triticum aestivum, post-emergence, 240 h, postemergence, 10 days, 0 to 100 scale (0 no effect, 100 complete control); for plant injury at 125 g/ha: 125 g ai/ha, read-out: Wheat plant response rating; for plant injury at 500 g/ha: 500 g ai/ha, visual injury, read-out: Plant response rating, Wheat
Outline: as §1

pigweed, palmer = assay: Test A preemergence; format: in vivo, Amaranthus palmeri; conditions: Amaranthus palmeri, pre-emergence, 240 h, read-out: Plant response rating, Pigweed, Palmer; for pest or weed control at 125 g/ha: 125 g ai/ha, visual injury after 10 days, 0 to 100 scale, 0 is no effect, 100 is complete control; for pest or weed control at 500 g/ha: 500 g ai/ha, 0 to 100 scale (0 no effect, 100 complete control), 10 days
Outline: as §1

foxtail, giant = assay: Test A preemergence; format: in vivo, Setaria faberi; conditions: Setaria faberi, pre-emergence, 240 h, read-out: Plant response rating, Foxtail, Giant; for pest or weed control at 125 g/ha: 125 g ai/ha, visual injury after 10 days, 0 to 100 scale, 0 is no effect, 100 is complete control; for pest or weed control at 500 g/ha: 500 g ai/ha, 0 to 100 scale (0 no effect, 100 complete control), 10 days
Outline: as §1

ducksalad = assay: Test B flooded paddy test; format: in vivo, Heteranthera limosa; conditions: Heteranthera limosa, 312 h, 250 g ai/ha, Flood, 13 days, 0 to 100 scale (0 no effect, 100 complete control); read-out: Plant response rating, Ducksalad
Outline: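 Species grown to 2-leaf stage; pots flooded 3 cm above soil and compound applied directly to paddy water, depth maintained throughout. After 13 days in greenhouse, plants visually rated against controls on 0–100 scale (0 no effect, 100 complete control); dash means no result.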

soybean = assay: Test A postemergence; format: in vivo, Glycine max; conditions: Glycine max, post-emergence, 240 h, postemergence, 10 days, 0 to 100 scale (0 no effect, 100 complete control); for plant injury at 125 g/ha: 125 g ai/ha, read-out: Soybean plant response rating; for plant injury at 500 g/ha: 500 g ai/ha, visual injury, read-out: Plant response rating, Soybean
Outline: as §1

ragweed = assay: Test A postemergence; format: in vivo, Ambrosia artemisiifolia; conditions: Ambrosia artemisiifolia, post-emergence, 240 h, postemergence, 10 days, 0 to 100 scale (0 no effect, 100 complete control); for pest or weed control at 125 g/ha: 125 g ai/ha, read-out: Ragweed plant response rating; for pest or weed control at 500 g/ha: 500 g ai/ha, visual injury, read-out: Plant response rating, Ragweed
Outline: as §1

ryegrass, Italian = assay: Test A preemergence; format: in vivo, Lolium multiflorum; conditions: Lolium multiflorum, pre-emergence, 240 h, read-out: Plant response rating, Ryegrass, Italian; for pest or weed control at 125 g/ha: 125 g ai/ha, visual injury after 10 days, 0 to 100 scale, 0 is no effect, 100 is complete control; for pest or weed control at 500 g/ha: 500 g ai/ha, 0 to 100 scale (0 no effect, 100 complete control), 10 days
Outline: as §1

corn = assay: Test A preemergence; format: in vivo, Zea mays; conditions: Zea mays, pre-emergence, 240 h; for Corn plant response rating (crop injury, 0 = no effect, 100 = complete kill) at 125 g/ha: 125 g ai/ha, visual injury after 10 days, 0 to 100 scale, 0 is no effect, 100 is complete control; for Corn plant response rating (crop injury, 0 = no effect, 100 = complete kill) at 500 g/ha: 500 g ai/ha, 0 to 100 scale (0 no effect, 100 complete control), 10 days
Outline: as §1

oat, wild [3] = assay: Test A preemergence; format: in vivo, Avena fatua; conditions: Avena fatua, pre-emergence, 240 h, read-out: Plant response rating, Oat, Wild; for pest or weed control at 125 g/ha: 125 g ai/ha, visual injury after 10 days, 0 to 100 scale, 0 is no effect, 100 is complete control; for pest or weed control at 500 g/ha: 500 g ai/ha, 0 to 100 scale (0 no effect, 100 complete control), 10 days
Outline: as §1

kochia = assay: Test A preemergence; format: in vivo, Bassia scoparia; conditions: Bassia scoparia, pre-emergence, 240 h, read-out: Plant response rating, Kochia; for pest or weed control at 125 g/ha: 125 g ai/ha, visual injury after 10 days, 0 to 100 scale, 0 is no effect, 100 is complete control; for pest or weed control at 500 g/ha: 500 g ai/ha, 0 to 100 scale (0 no effect, 100 complete control), 10 days
Outline: as §1

horseweed = assay: Test A postemergence; format: in vivo, Erigeron canadensis; conditions: Erigeron canadensis, post-emergence, 240 h, postemergence, 10 days, 0 to 100 scale (0 no effect, 100 complete control); for pest or weed control at 125 g/ha: 125 g ai/ha, read-out: Horseweed plant response rating; for pest or weed control at 500 g/ha: 500 g ai/ha, visual injury, read-out: Plant response rating, Horseweed
Outline: as §1

wheat [4] = assay: Test A preemergence; format: in vivo, Triticum aestivum; conditions: Triticum aestivum, pre-emergence, 240 h, read-out: Plant response rating, Wheat; for plant injury at 125 g/ha: 125 g ai/ha, visual injury after 10 days, 0 to 100 scale, 0 is no effect, 100 is complete control; for plant injury at 500 g/ha: 500 g ai/ha, 0 to 100 scale (0 no effect, 100 complete control), 10 days
Outline: as §1

[5] = postemergence, 10 days, 0 to 100 scale (0 no effect, 100 complete control)
[6] = postemergence, 10 days, visual injury, 0 to 100 scale (0 no effect, 100 complete control)

SMILES	pest or weed control at 125 g/ha (oat, wild [1]) [%]	pest or weed control at 500 g/ha (oat, wild [1]) [%]	pest or weed control at 125 g/ha (blackgrass; [5]) [%]	plant injury at 125 g/ha (wheat [2]) [%]	plant injury at 500 g/ha (wheat [2]) [%]	pest or weed control at 125 g/ha (pigweed, palmer) [%]	pest or weed control at 500 g/ha (pigweed, palmer) [%]	pest or weed control at 125 g/ha (foxtail, giant) [%]	pest or weed control at 500 g/ha (foxtail, giant) [%]	pest or weed control at 250 g/ha (ducksalad) [%]	plant injury at 125 g/ha (soybean) [%]	plant injury at 500 g/ha (soybean) [%]	pest or weed control at 125 g/ha (ragweed) [%]	pest or weed control at 500 g/ha (ragweed) [%]	pest or weed control at 125 g/ha (ryegrass, Italian) [%]	pest or weed control at 500 g/ha (ryegrass, Italian) [%]	Corn plant response rating (crop injury, 0 = no effect, 100 = complete kill) at 125 g/ha (corn) [%]	Corn plant response rating (crop injury, 0 = no effect, 100 = complete kill) at 500 g/ha (corn) [%]	pest or weed control at 125 g/ha (oat, wild [3]) [%]	pest or weed control at 500 g/ha (oat, wild [3]) [%]	further results
Cc1cccc2c1O[C@@H](C)CN2C(=O)c1cccc(-n2cnc(C3CCCC3)n2)c1 [Compound 80, [3-(3-Cyclopentyl-1H-1,2,4-triazol-1-yl)phenyl][(2S)-2,3-dihydro-2,8-dimethyl-4H-1,4-benzoxazin-4-yl]methanone]	0	20	0	10	10	10	80	20	80	0	70	100	40	60	90	100	0	20	0	10	pest or weed control at 500 g/ha (blackgrass; Postemergence, 0 to 100 scale): 40%; pest or weed control at 125 g/ha (kochia): 10%; pest or weed control at 500 g/ha (kochia): 80%; pest or weed control at 125 g/ha (horseweed): 0%; pest or weed control at 500 g/ha (horseweed): 0%; plant injury at 125 g/ha (wheat [4]): 0%; plant injury at 500 g/ha (wheat [4]): 10%
COc1ccc(-n2cnc(C(C)C)n2)cc1C(=O)N1C[C@H](C)Oc2c(Cl)cccc21 [Compound 84, [(2S)-8-chloro-2-methyl-2,3-dihydro-1,4-benzoxazin-4-yl]-[5-(3-isopropyl-1,2,4-triazol-1-yl)-2-methoxy-phenyl]methanone]	90	90	70	40	50	100	100	100	100	60	100	100	100	100	100	100	20	20	90	90	pest or weed control at 500 g/ha (blackgrass; [6]): 70%; pest or weed control at 125 g/ha (kochia): 80%; pest or weed control at 500 g/ha (kochia): 100%; pest or weed control at 125 g/ha (horseweed): 40%; pest or weed control at 500 g/ha (horseweed): 50%; plant injury at 125 g/ha (wheat [4]): 60%; plant injury at 500 g/ha (wheat [4]): 90%
CCc1ncn(-c2ccc(OC)c(C(=O)N3C[C@H](C)Oc4c(Cl)cccc43)c2)n1 [Compound 88, [(2S)-8-Chloro-2,3-dihydro-2-methyl-4H-1,4-benzoxazin-4-yl][5-(3-ethyl-1H-1,2,4-triazol-1-yl)-2-methoxyphenyl]methanone]	90	90	60	40	90	100	100	100	100	55	100	100	70	100	100	100	40	40	90	90	pest or weed control at 500 g/ha (blackgrass; [6]): 90%; pest or weed control at 125 g/ha (kochia): 90%; pest or weed control at 500 g/ha (kochia): 100%; pest or weed control at 125 g/ha (horseweed): 40%; pest or weed control at 500 g/ha (horseweed): 90%; plant injury at 125 g/ha (wheat [4]): 20%; plant injury at 500 g/ha (wheat [4]): 40%
